Target: Beta-3 Adrenergic Receptor (Homo sapiens (Human), UniProt P13945)
Test: HTRF cAMP antagonist assay (IC50 determination)
Format: cell-based
Details: CHO-K1 cells stably expressing recombinant receptor; antagonism of isoproterenol at EC90; cAMP readout
Method in brief: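 In this functional readout, recombinant CHO-K1 cells received compound, then isoproterenol at its EC90. After 1 h at room temperature, cAMP levels were determined by HTRF using an on-plate standard curve, and IC50 values were fitted.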

Chain of Beta-3 Adrenergic Receptor (P13945 whole entry, species assumed): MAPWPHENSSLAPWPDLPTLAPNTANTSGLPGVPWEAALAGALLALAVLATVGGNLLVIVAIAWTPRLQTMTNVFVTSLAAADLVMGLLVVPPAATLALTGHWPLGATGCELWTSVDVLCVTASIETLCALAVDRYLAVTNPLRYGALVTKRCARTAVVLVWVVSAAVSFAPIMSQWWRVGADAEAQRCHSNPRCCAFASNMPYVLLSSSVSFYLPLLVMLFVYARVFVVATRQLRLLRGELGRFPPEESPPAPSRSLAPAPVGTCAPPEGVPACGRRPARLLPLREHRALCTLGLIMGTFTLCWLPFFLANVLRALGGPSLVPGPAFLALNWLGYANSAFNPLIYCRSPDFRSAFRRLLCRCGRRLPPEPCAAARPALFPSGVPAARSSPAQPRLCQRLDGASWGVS

SMILES | IC50 [µM]
CCOc1ccc(-c2ccc(CN)cc2)cc1S(=O)(=O)N1CCC2(CC1)C[C@H](NC[C@H](O)COc1cccc(S(=O)(=O)C(F)(F)CO)c1)CO2 [Compound 168, (S)-1-((S)-8-(4′-(aminomethyl)-4-ethoxybiphenyl-3-ylsulfonyl)-1-oxa-8-azaspiro[4.5]decan-3-ylamino)-3-(3-(1,1-difluoro-2-hydroxyethylsulfonyl)phenoxy)propan-2-ol] | 0.0154
COc1ccc(S(=O)(=O)N2CCC3(CC2)C[C@H](NC[C@H](O)COc2cccc(S(=O)(=O)C(C)(C)CO)c2)CO3)cc1-c1ccc(C2(N)CC2)cc1 [Compound 224, 2-(3-((S)-3-((S)-8-(4′-(1-aminocyclopropyl)-6-methoxybiphenyl-3-ylsulfonyl)-1-oxa-8-azaspiro[4.5]decan-3-ylamino)-2-hydroxypropoxy)phenylsulfonyl)-2-methylpropan-1-ol] | 0.0732
O=S(=O)(c1cccc(OC[C@@H](O)CN[C@H]2COC3(CCN(S(=O)(=O)c4cnc5c(F)cccc5c4O)CC3)C2)c1)C1CC1 [Compound 328, 3-((R)-3-((S)-3-(3-(cyclopropylsulfonyl)phenoxy)-2-hydroxypropylamino)-1-oxa-8-azaspiro[4.5]decan-8-ylsulfonyl)-8-fluoroquinolin-4-ol] | 0.0354
NCCNCc1ccc(-c2cccc(S(=O)(=O)N3CCC4(CC3)C[C@@H](NC[C@H](O)COc3cccc(S(=O)(=O)C5(CO)CC5)c3)CO4)c2)cc1 [Compound 270, (S)-1-((R)-8-(4′-((2-aminoethylamino)methyl)biphenyl-3-ylsulfonyl)-1-oxa-8-azaspiro[4.5]decan-3-ylamino)-3-(3-(1-(hydroxymethyl)cyclopropylsulfonyl)phenoxy)propan-2-ol] | 0.0923
NCCc1ccc(-c2cccc(S(=O)(=O)N3CCC4(CC3)C[C@H](NC[C@H](O)COc3cccc(S(=O)(=O)C5(CO)CC5)c3)CO4)c2)cc1 [Compound 211, (S)-1-((S)-8-(4′-(2-aminoethyl)biphenyl-3-ylsulfonyl)-1-oxa-8-azaspiro[4.5]decan-3-ylamino)-3-(3-(1-(hydroxymethyl)cyclopropylsulfonyl)phenoxy)propan-2-ol] | 0.0262
Cc1ccc(-c2cccc(S(=O)(=O)N3CCC4(CC3)C[C@@H](NC[C@H](O)COc3cccc(S(=O)(=O)CCO)c3)CO4)c2)nc1 [Compound 127, (S)-1-(3-(2-hydroxyethylsulfonyl)phenoxy)-3-((R)-8-(3-(5-methylpyridin-2-yl)phenylsulfonyl)-1-oxa-8-azaspiro[4.5]decan-3-ylamino)propan-2-ol] | 0.157
O=S(=O)(c1cccnc1)N1CCC2(CC1)C[C@@H](NC[C@H](O)COc1cccc(S(=O)(=O)C3(CO)CC3)c1)CO2 [Compound 195, (S)-1-(3-(1-(hydroxymethyl)cyclopropylsulfonyl)phenoxy)-3-((R)-8-(pyridin-3-ylsulfonyl)-1-oxa-8-azaspiro[4.5]decan-3-ylamino)propan-2-ol] | 1.53
NC1(c2ccc(-c3cc(S(=O)(=O)N4CCC5(CC4)C[C@@H](NC[C@H](O)COc4cccc(S(=O)(=O)C6(CO)CC6)c4)CO5)ccc3F)cc2)CC1 [Compound 217, (S)-1-((R)-8-(4′-(1-aminocyclopropyl)-6-fluorobiphenyl-3-ylsulfonyl)-1-oxa-8-azaspiro[4.5]decan-3-ylamino)-3-(3-(1-(hydroxymethyl)cyclopropylsulfonyl)phenoxy)propan-2-ol] | 0.0284
O=S(=O)(CCO)c1cc(F)cc(OC[C@@H](O)CN[C@H]2COC3(CCN(S(=O)(=O)c4ccc5ncccc5c4)CC3)C2)c1 [Compound 249, (S)-1-(3-fluoro-5-(2-hydroxyethylsulfonyl)phenoxy)-3-((R)-8-(quinolin-6-ylsulfonyl)-1-oxa-8-azaspiro[4.5]decan-3-ylamino)propan-2-ol] | 0.224
CCNCc1ccc(-c2cccc(S(=O)(=O)N3CCC4(CC3)C[C@@H](NC[C@H](O)COc3cccc(S(=O)(=O)C5(CO)CC5)c3)CO4)c2)cc1 [Compound 268, (S)-1-((R)-8-(4′-((ethylamino)methyl)biphenyl-3-ylsulfonyl)-1-oxa-8-azaspiro[4.5]decan-3-ylamino)-3-(3-(1-(hydroxymethyl)cyclopropylsulfonyl)phenoxy)propan-2-ol] | 0.138
NCc1ccc(-c2ccc(S(=O)(=O)N3CCC4(CC3)C[C@@H](NC[C@H](O)COc3cccc(S(=O)(=O)CCO)c3)CO4)cc2)cc1 [Compound 103, (S)-1-((R)-8-(4′-(aminomethyl)biphenyl-4-ylsulfonyl)-1-oxa-8-azaspiro[4.5]decan-3-ylamino)-3-(3-(2-hydroxyethylsulfonyl)phenoxy)propan-2-ol] | 1.2
CC(=O)NCCc1ccc(-c2cccc(S(=O)(=O)N3CCC4(CC3)C[C@H](NC[C@H](O)COc3cccc(S(=O)(=O)C5(CO)CC5)c3)CO4)c2)cc1 [Compound 190, N-(2-(3′-((S)-3-((S)-2-hydroxy-3-(3-(1-(hydroxymethyl)cyclopropylsulfonyl)phenoxy)propylamino)-1-oxa-8-azaspiro[4.5]decan-8-ylsulfonyl)biphenyl-4-yl)ethyl)acetamide] | 0.0313

Now from value to molecule:

IC50 [µM] | SMILES
0.00525 | CCS(=O)(=O)c1cccc(OC[C@@H](O)CN[C@H]2COC3(CCN(S(=O)(=O)c4ccc5ccccc5c4)CC3)C2)c1 [Compound 26, (S)-1-(3-(ethylsulfonyl)phenoxy)-3-((R)-8-(naphthalen-2-ylsulfonyl)-1-oxa-8-azaspiro[4.5]decan-3-ylamino)propan-2-ol]
0.0244 | CS(=O)(=O)c1cccc(OC[C@@H](O)CNC2COC3(CCN(S(=O)(=O)c4cccc(-c5ccc(N)nc5)c4)CC3)C2)c1 (stereo partly drawn) [Compound 70, (2S)-1-(8-(3-(6-aminopyridin-3-yl)phenylsulfonyl)-1-oxa-8-azaspiro[4.5]decan-3-ylamino)-3-(3-(methylsulfonyl)phenoxy)propan-2-ol]
0.0278 | CC(C)CNCc1ccc(-c2cccc(S(=O)(=O)N3CCC4(CC3)CC(NC[C@H](O)COc3cccc(S(C)(=O)=O)c3)CO4)c2)cc1 (stereo partly drawn) [Compound 81, (2S)-1-(8-(4′-((isobutylamino)methyl)biphenyl-3-ylsulfonyl)-1-oxa-8-azaspiro[4.5]decan-3-ylamino)-3-(3-(methylsulfonyl)phenoxy)propan-2-ol]
0.0395 | CCS(=O)(=O)c1cccc(OC[C@@H](O)CN[C@H]2COC3(CCN(S(=O)(=O)c4ccc5ncccc5c4)CC3)C2)c1 [Compound 112, (S)-1-(3-(ethylsulfonyl)phenoxy)-3-((R)-8-(quinolin-6-ylsulfonyl)-1-oxa-8-azaspiro[4.5]decan-3-ylamino)propan-2-ol]
0.302 | NCCS(=O)(=O)c1cccc(OC[C@@H](O)CNC2COC3(CCN(S(=O)(=O)c4ccc5ccccc5c4)CC3)C2)c1 (stereo partly drawn) [Compound 22, (2S)-1-(3-(2-aminoethylsulfonyl)phenoxy)-3-(8-(naphthalen-2-ylsulfonyl)-1-oxa-8-azaspiro[4.5]decan-3-ylamino)propan-2-ol]
0.0331 | COc1cccc(S(=O)(=O)N2CCC3(CC2)CC(NC[C@H](O)COc2cccc(S(C)(=O)=O)c2)CO3)c1 (stereo partly drawn) [Compound 49, (2S)-1-(8-(3-methoxyphenylsulfonyl)-1-oxa-8-azaspiro[4.5]decan-3-ylamino)-3-(3-(methylsulfonyl)phenoxy)propan-2-ol]

Reference: patent publication US10927123B2, “Modulators of the beta-3 adrenergic receptor useful for the treatment or prevention of disorders related thereto” (Arena Pharmaceuticals, Inc., priority 2016, dated 2021)
